Among the data in patent US12060349B2, “Glucosylceramide synthase inhibitors” (Genzyme Corporation, priority 2012, dated 2024) are IC50 values, retold here.

Structures are written as SMILES. pIC50: −log10 of the molar value. Like-named read-outs stand apart in the source and are kept apart here.

For assay [1], the target named is T1, glucosylceramide synthase (Homo sapiens, UniProt Q16739).
T1 construct: Microsomes were isolated from A375 human melanoma cells; endogenous in cells; host or cells: A375 human melanoma cells (microsomal fraction, 100,000 g pellet)
T1 sequence (Q16739 1-394): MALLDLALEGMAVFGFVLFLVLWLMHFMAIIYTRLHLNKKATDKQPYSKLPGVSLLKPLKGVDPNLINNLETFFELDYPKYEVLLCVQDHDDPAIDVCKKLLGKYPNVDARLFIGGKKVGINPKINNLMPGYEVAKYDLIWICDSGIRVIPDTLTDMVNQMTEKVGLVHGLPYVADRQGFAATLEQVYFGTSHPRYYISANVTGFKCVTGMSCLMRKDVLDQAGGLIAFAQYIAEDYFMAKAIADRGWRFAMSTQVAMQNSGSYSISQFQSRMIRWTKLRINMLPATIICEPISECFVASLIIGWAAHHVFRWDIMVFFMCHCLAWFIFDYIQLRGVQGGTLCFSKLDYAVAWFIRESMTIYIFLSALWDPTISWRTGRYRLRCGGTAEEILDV
Kind of assay: microsomal assay measuring conversion of ceramide to glucosylceramide by HPLC (GCS IC50). The conditions noted are these: concentration causing 50% inhibition of glucosylceramide synthase activity. The class given is biochemical. An outline of the steps:
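Microsomal preparation assayed for glucosylceramide synthase by direct HPLC measurement of ceramide conversion to glucosylceramide. GCS IC50 is the compound concentration giving 50% inhibition of enzyme activity.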

In assay [2] the test system is GM3 expression on the cell surface, B16 mouse melanoma cells. Kind of assay: cell based phenotypic assay, cell surface GM3 by antibody mediated immunofluorescence, B16 (GM3 B16 IC50). The conditions noted are these: Mus musculus, 50% inhibition of GM3 expression on the cell surface. An outline of the steps: (§1)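 B16 mouse and C32 human melanoma cells; cell-surface GM3 measured by antibody-mediated immunofluorescence, giving IC50.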

The subject of assay [3] is GM3 expression on the cell surface, C32 human melanoma cells. Kind of assay: cell based phenotypic assay, cell surface GM3 by antibody mediated immunofluorescence, C32 (GM3 C32 IC50). The conditions noted are these: Homo sapiens, 50% inhibition of GM3 expression on the cell surface. The essentials:
as §1

Another assay has as its system B16 mouse melanoma cells. Kind of assay: cell viability in the B16 cell-based assay (Viability, B16 IC50). An outline of the steps:
(§2)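 Both lines undergo the phenotypic GM3 assay, and viability is recorded from that same cell-based run.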

For a further assay, the system named is C32 human melanoma cells. Kind of assay: cell viability in the C32 cell-based assay (Viability, C32 IC50). The conditions noted are these: concentration causing 50% cell death, values greater than 10 represent a lack of cell death. An outline of the steps:
as §2

Setting [4] is: B16 mouse melanoma cells, read-out: GM3 B16 IC50.
Where [5] appears, read: C32 human melanoma cells, read-out: GM3 C32 IC50.
The mark [6] stands for this setting: Mus musculus, B16, B16 cells, concentration causing 50% cell death, values greater than 10 represent a lack of cell death, read-out: Viability, B16 IC50.
Setting [7] is: Homo sapiens, C32, C32 cells, read-out: Viability, C32 IC50.
Where [8] appears, read: read-out: GM3 B16 IC50, B16 mouse melanoma cells.
The mark [9] stands for this setting: read-out: GM3 C32 IC50, C32 human melanoma cells.
[10] abbreviates: read-out: Viability, B16 IC50, B16 cells, concentration causing 50% cell death, values greater than 10 represent a lack of cell death.
Setting [11] is: read-out: Viability, C32 IC50, C32 cells.

Take `CCCC1(NC(=O)NC2(c3ccc(-c4ccc(COCc5cccnc5)cc4)cc3)CC2)CN2CCC1CC2` (stereo not drawn) [Example 218, 1-(3-Propylquinuclidin-3-yl)-3-(1-(4′-((pyridin-3-ylmethoxy)methyl)-[1,1′-biphenyl]-4-yl)cyclopropyl)urea]: the negative-log IC50 (pIC50) (commonly the negative decadic logarithm of the IC50, by convention in mol/L) in assay [1] was 7.96; in assay [2] (setting [4]), 7.09; in assay [3] (setting [5]), 8.53; with B16 mouse melanoma cells (setting [6]) it was 5.10; in the assay on C32 human melanoma cells (setting [7]), at most 5.00.
In the case of `O=C(NC1(c2ccc(-c3ccc(COCc4cncnc4)cc3)cc2)CC1)OC1CN2CCC1CC2` (stereo not drawn) [Example 219, Quinuclidin-3-yl (1-(4′-((pyrimidin-5-ylmethoxy)methyl)-[1,1′-biphenyl]-4-yl)cyclopropyl)carbamate], the pIC50 is 7.33 in assay [1]; 6.93 in assay [2] (setting [8]); 7.68 in assay [3] (setting [9]); at most 5.00 in the assay with B16 mouse melanoma cells (Mus musculus, B16, read-out: Viability, B16 IC50); at most 5.00 with C32 human melanoma cells (Homo sapiens, C32, read-out: Viability, C32 IC50, C32 cells).
With `CCC1(NC(=O)NC2(c3ccc(-c4ccc(COCc5cncnc5)cc4)cc3)CC2)CN2CCC1CC2` (stereo not drawn) [Example 220, 1-(3-Ethylquinuclidin-3-yl)-3-(1-(4′-((pyrimidin-5-ylmethoxy)methyl)-[1,1′-biphenyl]-4-yl)cyclopropyl)urea], the pIC50 is 7.29 in assay [1]; 6.94 in assay [2] (setting [4]); 8.22 in assay [3] (setting [5]); at most 5.00 in the assay with B16 mouse melanoma cells (setting [6]); 5.50 in the assay with C32 human melanoma cells (setting [7]).
In the same order, the values of `O=C(NC1(c2ccc(-c3ccc(COCc4cncnc4)cc3)cc2)CC1)OC1CCN2CCC1CC2` (stereo not drawn) [Example 221, 1-Azabicyclo[3.2.2]nonan-4-yl (1-(4′-((pyrimidin-5-ylmethoxy)methyl)-[1,1′-biphenyl]-4-yl)cyclopropyl)carbamate] are 7.28, 7.00, 7.68, at most 5.00 and at most 5.00.
For the molecule `COCCCc1ccc(-c2ccc(C(C)(C)NC(=O)NC3(C)CN4CCC3CC4)cc2)cc1` (stereo not drawn) [Example 222, 1-(2-(4′-(3-Methoxypropyl)-[1,1′-biphenyl]-4-yl)propan-2-yl)-3-(3-methylquinuclidin-3-yl)urea], the negative logarithm of the IC50 (pIC50) was 8.77 in assay [1]; 7.51 in assay [2] (setting [4]); 9.12 in assay [3] (setting [5]); at most 5.00 in the assay with B16 mouse melanoma cells (setting [6]); at most 5.00 in the assay on C32 human melanoma cells (setting [7]).
Turning to `CC(C)(NC(=O)OC1CN2CCC1CC2)c1ccc(-c2ccc(CO)cc2)cc1` (stereo not drawn) [Example 223, Quinuclidin-3-yl (2-(4′-(hydroxymethyl)-[1,1′-biphenyl]-4-yl)propan-2-yl)carbamate], the pIC50 in assay [1] is 6.34; in assay [2] (setting [8]), 6.06; in assay [3] (setting [9]) it was 7.67; with B16 mouse melanoma cells (setting [10]) it was at most 5.00; with C32 human melanoma cells (setting [11]) it was at most 5.00.
In the case of `CCCC1(NC(=O)NC(C)(C)c2ccc(-c3ccc(CCO)cc3)cc2)CN2CCC1CC2` (stereo not drawn) [Example 224, 1-(2-(4′-(2-Hydroxyethyl)-[1,1′-biphenyl]-4-yl)propan-2-yl)-3-(3-propylquinuclidin-3-yl)urea], the pIC50 was 7.69 in assay [1]; 7.19 in assay [2] (setting [4]); 8.80 in assay [3] (setting [5]); at most 5.00 in the assay on B16 mouse melanoma cells (setting [6]); at most 5.00 in the assay with C32 human melanoma cells (setting [7]).
Consider `CCC1(NC(=O)NC(C)(C)c2ccc(-c3ccc(CCO)cc3)cc2)CN2CCC1CC2` (stereo not drawn) [Example 225, 1-(3-Ethylquinuclidin-3-yl)-3-(2-(4′-(2-hydroxyethyl)-[1,1′-biphenyl]-4-yl)propan-2-yl)urea], for which the negative logarithm of the IC50 (pIC50) in assay [1] was 7.53; in assay [2] (setting [4]) it was 6.64; in assay [3] (setting [5]), 8.72; with B16 mouse melanoma cells (setting [6]), at most 5.00; with C32 human melanoma cells (setting [7]), at most 5.00.
Turning to `CC(C)(NC(=O)OC1CN2CCC1CC2)c1ccc(-c2ccc(CCO)cc2)cc1` (stereo not drawn) [Example 226, Quinuclidin-3-yl (2-(4′-(2-hydroxyethyl)-[1,1′-biphenyl]-4-yl)propan-2-yl)carbamate], the pIC50 was 6.83 in assay [1]; 6.18 in assay [2] (setting [8]); 7.65 in assay [3] (setting [9]); at most 5.00 in the assay on B16 mouse melanoma cells (setting [10]); at most 5.00 in the assay with C32 human melanoma cells (setting [11]).
